How the values were obtained:
[1] = molecular target: T1, Protein-serine O-palmitoleoyltransferase porcupine (Homo sapiens) (UniProt Q9H237); experiment: Binding affinity to porcupine (unknown origin)
T1 sequence (whole entry): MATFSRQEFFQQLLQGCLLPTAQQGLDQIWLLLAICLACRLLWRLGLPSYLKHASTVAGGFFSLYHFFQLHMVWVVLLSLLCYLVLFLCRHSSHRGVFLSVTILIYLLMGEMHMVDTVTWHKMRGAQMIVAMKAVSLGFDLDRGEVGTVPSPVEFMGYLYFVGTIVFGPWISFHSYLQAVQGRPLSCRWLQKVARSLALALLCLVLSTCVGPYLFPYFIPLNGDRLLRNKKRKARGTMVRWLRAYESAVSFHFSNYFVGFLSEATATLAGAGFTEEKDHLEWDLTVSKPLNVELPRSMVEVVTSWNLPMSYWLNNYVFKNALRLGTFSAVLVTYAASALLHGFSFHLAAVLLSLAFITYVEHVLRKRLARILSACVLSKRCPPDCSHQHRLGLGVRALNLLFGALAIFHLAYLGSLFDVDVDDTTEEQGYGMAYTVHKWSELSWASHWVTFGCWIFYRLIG

[2] = molecular target: T2, Protein-serine O-palmitoleoyltransferase porcupine (Homo sapiens, UniProt Q9H237); experiment: (§1) Inhibition of porcupine in human HEK293 cells assessed as reduction in Wnt secretion by measuring suppression of beta-catenin reporter activity after 24 hrs by STF reporter assay; assay type: cell-based
T2 sequence (Q9H237 whole entry): T1 sequence (whole entry)

[3] = molecular target: T2, Protein-serine O-palmitoleoyltransferase porcupine; experiment: Inhibition of porcupine in human HEK293 cells by STF reporter assay; assay type: cell-based
[4] = molecular target: T1, Protein-serine O-palmitoleoyltransferase porcupine (Homo sapiens); experiment: as §1; assay type: cell-based
[5] = molecular target: T2, Protein-serine O-palmitoleoyltransferase porcupine; experiment: Inhibition of porcupine activity (unknown origin) expressed in human HT1080 cells assessed as suppression of Wnt3A-mediated super top flash activity by STF luciferase assay; assay type: cell-based, HT-1080
[6] = molecular target: T3, Protein-serine O-palmitoleoyltransferase porcupine (Mus musculus, UniProt Q9JJJ7); experiment: Inhibition of mouse porcupine expressed in human HT1080 cells assessed as reduction in beta catenin reporter activity using firefly luciferase substrate STF reporter assay; assay type: cell-based, HT-1080
T3 sequence (Q9JJJ7 whole entry): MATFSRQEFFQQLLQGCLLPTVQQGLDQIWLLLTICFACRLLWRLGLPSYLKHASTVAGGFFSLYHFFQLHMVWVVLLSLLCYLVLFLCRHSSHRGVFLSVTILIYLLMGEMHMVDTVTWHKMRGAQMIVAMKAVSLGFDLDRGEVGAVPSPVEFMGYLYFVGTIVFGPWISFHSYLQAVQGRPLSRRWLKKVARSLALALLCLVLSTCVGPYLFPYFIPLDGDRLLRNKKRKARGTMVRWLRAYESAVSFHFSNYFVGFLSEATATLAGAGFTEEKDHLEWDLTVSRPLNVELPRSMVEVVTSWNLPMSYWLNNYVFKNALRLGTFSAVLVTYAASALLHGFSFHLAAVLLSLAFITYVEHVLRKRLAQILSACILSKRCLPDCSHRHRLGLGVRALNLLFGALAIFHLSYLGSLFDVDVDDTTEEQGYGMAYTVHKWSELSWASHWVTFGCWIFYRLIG

HPAF-II = experiment: (§2) Antitumor activity against human HPAF2 cells xenografted in Balb/c mouse assessed as tumor growth inhibition at 100 mg/kg; assay type: functional
[7] = as §2; assay type: functional; settings: HPAF-II, read-out: TGI
[8] = Inhibition of xenopus porcupine expressed in human HT1080 cells assessed as reduction in beta catenin reporter activity using firefly luciferase substrate STF reporter assay; assay type: cell-based; settings: ht-1080

**Q.** With COc1ccc2nc(NC(=O)CNC(=O)c3ccc(=O)n(-c4ccccc4)c3)sc2c1 as the compound, how does the Activity [1] read?
**A.** The Activity was over 25 µM.

**Q.** With C[C@H](C(=O)Nc1ccc(-c2ccsc2)cc1)n1cnc2c1c(=O)n(C)c(=O)n2C as the compound, how does the IC50 [2] read?
**A.** Its IC50 is 5400 nM.

**Q.** Which IC50 [3] does the source give for Cn1c(=O)c2c(nc3n2[C@H](CC(=O)Nc2ccc(-c4ccccc4)nn2)CC3)n(C)c1=O here?
**A.** The IC50 was 5 nM.

**Q.** For C[C@@H](C(=O)Nc1ccc(-c2ccsc2)cc1)n1cnc2c1c(=O)n(C)c(=O)n2C, which inhibition [4] is on record?
**A.** The inhibition was “Dose-dependent effect”.

**Q.** With COc1ccc(-n2nc(C(=O)NCC(=O)Nc3nc4ccc(OC)cc4s3)c3ccccc3c2=O)cc1 as the compound, how does the IC50 [5] read?
**A.** Its IC50 is 60 nM.

**Q.** What does the source list for Cn1c(=O)c2c(ncn2CC(=O)Nc2ccc(-c3ccccc3)nn2)n(C)c1=O [ETC-159]?
**A.** inhibition [4]: Dose-dependent effect; IC50 [6]: 18.1 nM; TGI (HPAF-II): Dose-dependent effect; inhibition in vivo at 100 mg/kg [7]: 90%; IC50 [8]: 70 nM

**Q.** With Cc1cc(-c2ccc(CC(=O)Nc3ccc(-c4cccnc4)cc3)cc2)ccn1 as the compound, how does the IC50 [5] read?
**A.** The IC50 was 0.074 nM.

**Q.** With O=C(CNC(=O)c1nn(-c2ccccc2)c(=O)c2ccccc12)Nc1nccs1 as the compound, how does the Activity [1] read?
**A.** The Activity was over 25 µM.

From ChEMBL document CHEMBL3632565, “The use of porcupine inhibitors to target Wnt-driven cancers” (Bioorg Med Chem Lett, 2015)
